Measured values as given in PMC8757608 (Journal of Enzyme Inhibition and Medicinal Chemistry, 2022).

Key:
HL60(TB) (leukemia) = test: NCI-60 single dose screen, HL60; format: cell-based; settings: Homo sapiens, HL-60, read-out: percent growth inhibition
K-562 (leukemia) = test: NCI-60 single dose screen, K-562; format: cell-based; settings: Homo sapiens, K562, read-out: percent growth inhibition

Structure (SMILES): Cc1cc(=O)[nH]c(=O)n1Cc1cn(-c2c3ccccc3nc3ccccc23)nn1 [Compound 8, 1-((1-(Acridin-9-yl)-1H-1,2,3-triazol-4-yl)methyl)-6-methylpyrimidine-2,4(1H,3H)-dione]
- inhibition at 10 µM (HL60(TB) (leukemia)): 92.9%
- inhibition at 10 µM (K-562 (leukemia)): 83.7%
